Molecules are shown by their SMILES.

The target of one test is WIL-V (Homo sapiens, UniProt P01721). Nature of the test: Sedimentation velocity analytical ultracentrifugation (SV-AUC). Particulars: LC 20 μM, 1 at 100 μM. The procedure:
Analytical Ultracentrifugation (AUC). […] Sedimentation was measured by absorbance at 280 nm. Data were processed using SedFit (6).

The next test has as its system WIL-FL C214S. Briefly: Thioflavin T aggregation kinetics. Type of test: biochemical, human. The following applies: thioflavin T fluorescence. The procedure: Aggregation. WIL C214S was dialyzed into ddH2O and filtered. Each 1 ml reaction contained 10 μM LC, ddH2O, 1% DMSO or 200 μM 1 in 1% DMSO, 150 mM NaCl, and ABC buffer (20 mM sodium acetate, 20 mM boric acid, 20 mM sodium citrate, pH 5 with HCl). Components are listed in the order they were added.
Thioflavin T (ThT)-containing aggregation reactions were set up in 96-well plates with similar conditions used for the reactions described above, except each 100 μl reaction also contained 2 μM ThT. Aggregation was induced with shaking as previously described (4). In total, 21 replicates for both vehicle and 1, over four independent experiments (plates) were performed.
WIL-FL C214S aggregates upon vigorous stirring at or below pH 5 to form heterogenous aggregate structures. […] This may be because a given LC can stochastically form different aggregate structures with different kinetics.

A further test addresses WIL-FL (Homo sapiens, UniProt P01721). Briefly: PK proteolysis of unlabeled WIL-FL by SDS-PAGE. Particulars: WIL-FL 10 μM, small molecule 100 μM, t=2 h.
In test [1] the target is T1, WIL-FL* (Homo sapiens, UniProt P01721, K101C, form not given). Briefly: Protease-coupled fluorescence polarization (PCFP) assay with proteinase K. The following applies: secondary screen, mean ± sd, n=3; 6.75 μM compound; FP retention after 24 h at 22° C., normalized to high and low controls. On the technique in general: In fluorescence polarisation assays a small probe gives low polarisation when free and higher when bound to something large.

In test [2] the test system is WIL-FL and JTO-FL with residue 46 mutated to leucine. Nature of the test: Fluorogenic coumarin titration, residue 46 to leucine variants. In kind it is binding, human. The text has this:
The residues used by JTO to bind 1 are highly conserved (FIG. 3d). Residues Y36, P44, Y87 and F98 are present in 88, 99, 95 and 100% of all human germline LC genes, respectively, whereas T46 is only present in two functional germline genes.

The next test has as its target JTO-V (Homo sapiens, UniProt P01721). Briefly: NMR ZZ-exchange experiment. The following applies: JTO-V2•1 complex. In kind it is binding. The method, then: Chemical exchange saturation transfer (CEST) experiments were acquired on WIL-V samples at 0.4 mM in the presence of 0.2 or 0.3 mM 1 using a multi-site excitation scheme (16). […] Further details of the analysis of these experiments are given in the Supplemental NMR Analysis described below.

Test [3] concerns κ1-33 LCs (AL12-FL, κ I O18/O8-FL). Briefly: Fluorogenic coumarin titration, κ1-33 LCs. Particulars: 1 at 1 μM. Type of test: binding, human. The procedure: Fluorogenic coumarin titration. LCs were concentrated to 200 μM in centrifugal concentrators with a 10 kDa membrane, unless the available material was limiting. […] Fluorescence of 1 was measured on a Gemini plate reader (Molecular Devices) using an excitation wavelength of 373 nm and emission wavelength of 445 nm. Data were normalized platewise to the plateau fluorescence value for WIL-FL to calculate the fraction of 1 bound.
Of the two classes of human LCs, λ and κ, λ LCs are more commonly observed in AL, but a fraction of patients secrete κ1-33 LCs (12, 33). […] Recombinant expression of these κ1-33 LCs using a similar protocol to that used for λ6-57 LCs yielded both monomeric and dimeric LCs, as shown by SV-AUC (SI Appendix FIG. S7). […] Binding of an excess of κ1-33 LCs (20 μM) to 1 (1 μM) afforded FL LC•1 fluorescence (FIG. 2f, inset).

Test [4] has as its target T1, WIL-FL*. Nature of the test: PCFP assay with thermolysin. The following applies: mean ± sd, n=3; 6.75 μM compound.
Protocol: Thirdly, to remove molecules that inhibit proteinase K, the assay was repeated in triplicate using 100 nM thermolysin (Thermo). […] The additional metal ions were added to bind to ion-chelating small molecules and prevent them from inhibiting the metalloproteinase.
To identify and exclude molecules that interfered with FP measurements, the assay was repeated, but candidate stabilizers were not added until after 24 h of PK treatment (FIG. 1f). […] Thermolysin is a broad-spectrum metalloprotease that is likely not inhibited by compounds that inhibit PK, a serine protease.
A further test has as its system 5J8 Fab. Nature of the test: PK proteolysis. Type of test: biochemical, human.

In the case of `CCN(CC)c1ccc2c(C)cc(=O)oc2c1` [Compound 1, 7-diethylamino-4-methylcoumarin], the “size distribution (SV-AUC)” value on WIL-V is “increase”. Moreover, the “rate of aggregation versus vehicle control” value in the test on WIL-FL C214S is “decreases the rate of aggregation significantly”. The “protection of WIL-FL against PK proteolysis” value at WIL-FL is on record as “protects this FL LC against PK proteolysis”. Also, at WIL-FL* [1], the “PK activity (%)” value was found to be 47.8 ± 0.7%. In test [2], the “binding affinity of 1” value is reported as “slightly enhances the binding affinity”. This compound showed an off-rate at JTO-V of 57 ± 2 s⁻¹. The “binding of 1” value in test [3] is “weaker than binding to λ6-57 LCs”. Further, the “Thermolysin activity (%)” value on WIL-FL* [4] is on record as 36.4 ± 2.0%. Further, the “protection from PK proteolysis” value with 5J8 Fab is “does not protect”.

Values taken from patent US11945806B2, “Stabilization of amyloidogenic immunoglobulin light chains” (The Scripps Research Institute, priority 2019, dated 2024).
